# Test results from paper PMC6148246, “HS-1371, a novel kinase inhibitor of RIP3-mediated necroptosis” (Experimental & Molecular Medicine, 2018).
# Key:
# [1] = system: RIP3 or MLKL-deficient cells; experiment: TSZ treatment of RIP3 or MLKL knockdown HT-29 cells (MTT assay); assay type: cell-based, human; details: HT-29 shRIP3 or shMLKL, TSZ 24 h
# Experimental: MISSION short-hairpin RNA (shRNA) plasmids targeting hRIP3 mRNA (NM_006871), hMLKL mRNA (NM_152649), and non-targeting control sequences (NM_027088) were obtained from Sigma-Aldrich. Lentiviral plasmids were transfected into 293TN cells (System Biosciences, LV900A-1) using Lipofectamine 2000 (Invitrogen, 11668019). Pseudoviral particles were collected 2 days after the transfection and infected into cells with polybrene (8 μg/mL). Infected cells were puromycin selected two days after infection, and knockdown was confirmed by immunoblotting.
# HT-29 cells expressing RIP3 shRNA, MLKL shRNA, or non-silencing control were analyzed by western blotting (upper panel), and these cells were treated with TSZ (6 h for immunoblotting, 24 h for cell death assay). Cell lysates were analyzed by immunoblotting (middle panel), and cell viability was analyzed by MTT assay (bottom panel). The results are presented as means ± SEM. *P < 0.05, **P < 0.01, ***P < 0.001. b HS-1371 protected cells not only from TNF-induced necroptosis but also from TRAIL-induced necroptosis. […] Cell lysates were analyzed by immunoblotting, and cell viability was analyzed by MTT assay or phase-contrast microscopy. […] Cell lysates were analyzed by immunoblotting, and cell viability was analyzed by MTT assay (TC) or CellTiter-Glo Luminescent Cell Viability Assay Kit (TS). […]
# HT-29 cells = experiment: TRAIL-induced necroptosis in HT-29 cells (immunoblot, MTT); assay type: cell-based
# Experimental: HT-29 cells expressing RIP3 shRNA, MLKL shRNA, or non-silencing control were analyzed by western blotting (upper panel), and these cells were treated with TSZ (6 h for immunoblotting, 24 h for cell death assay). Cell lysates were analyzed by immunoblotting (middle panel), and cell viability was analyzed by MTT assay (bottom panel). The results are presented as means ± SEM. *P < 0.05, **P < 0.01, ***P < 0.001. b HS-1371 protected cells not only from TNF-induced necroptosis but also from TRAIL-induced necroptosis. HT-29 cells were pretreated with indicated concentrations of HS-1371 and then treated with TRAIL + Smac + zVAD (6 h for immunoblotting, 24 h for cell death assay). Cell lysates were analyzed by immunoblotting, and cell viability was analyzed by MTT assay or phase-contrast microscopy. The results are presented as means ± SEM. *P < 0.05, **P < 0.01, ***P < 0.001. c, d HS-1371 had no effect on TNF-induced apoptosis. HT-29 cells were pretreated with HS-1371 (5 μM) for 2 h and then treated with TC or TS (TNF + either cycloheximide or SMAC mimetic, hereafter referred to as TC or TS, 6 h for immunoblotting, 24 h (TC) or 36 h (TS) for cell death assay). Cell lysates were analyzed by immunoblotting, and cell viability was analyzed by MTT assay (TC) or CellTiter-Glo Luminescent Cell Viability Assay Kit (TS). The results are presented as means ± SEM. *P < 0.05, **P < 0.01, ***P < 0.001 […]
# [2] = system: RAW264.7 macrophage cells; experiment: LPS plus zVAD-induced cytokine expression in RAW264.7 cells (real-time PCR); assay type: cell-based, mouse; details: RAW264.7, LPS + zVAD, 5 and 10 μM, pre 1 h or post 2 h
# Experimental: Total RNA was extracted using the TRIzol reagent (Life Technologies) according to the manufacturer’s instructions. Total RNA (1 μg) from each sample was converted to cDNA using MMLV reverse transcriptase (MGmed, Seoul, Korea). Equal amounts of cDNA product were used in reverse transcription-PCR conducted using the GoTaq® Green Master Mix (Promega). Real-time PCR amplification was performed using iQ™ SYBR® Green Supermix (Bio-rad). […]
# HeLa, L929, and MEF cells were pretreated with HS-1371 (5 μM) for 2 h, and treated with TNF (30 ng/mL) for indicated time points. Cell lysates were analyzed by immunoblotting. […]
# (a) RAW264.7 cells were treated with LPS (1 μg/mL) for indicated time points and cell lysates were analyzed by immunoblotting.
# (b) RAW264.7 cells were pretreated with zVAD (20 μM) for 1 h and then treated with LPS (1 μg/mL) for indicated time points. Cell lysates were analyzed by immunoblotting.
# (c) IL-6, TNF-α, and IL-1β expression levels were determined by RT-PCR analysis. […]
# (d) RAW264.7 cells were pretreated with zVAD (20 μM) and HS-1371 (5 μM) for 1 h and then treated with LPS (1 μg/mL) for 4 h. Cell lysates were analyzed by immunoblotting (left panel).
# IL-1β and IL-6 expression levels were determined by real-time PCR analysis. […]
# (e) IL-1β, IL-6 and TNF-α expression levels were determined by real -time PCR analysis. […]
# RIP3 = RIP3 (Homo sapiens, UniProt Q9Y572); experiment: Radiometric kinase assay of RIP3 (Reaction Biology); assay type: biochemical; design: purchased Reaction Biology Corp (Malvern, PA, USA); details: 10 μM ATP, 20 μM MBP substrate; read-out: IC50 against RIP3
# Experimental: The inhibitory activities of all compounds toward RIP3 were measured by Reaction Biology Corp (Malvern, PA, USA) by means of radiometric kinase assays ([…]). The enzymatic activity of RIP3 was monitored using 20 μM of myelin basic protein (MBP) dissolved in freshly prepared reaction buffer (20 mM HEPES (pH 7.5), 10 mM MgCl2, 1 mM EGTA, 0.02% BRIJ-35, 0.02 mg/mL BSA, 0.1 mM Na3VO4, 2 mM DTT, 1% DMSO). Each putative RIP3 inhibitor was dissolved in 100% DMSO at specific concentrations and serially diluted with epMotion 5070 in DMSO. Human RIP3 and 20 μM of peptide substrate (MBP) were added to the reaction buffer. After delivering the candidate inhibitor dissolved in DMSO to the kinase reaction mixture using Acoustic technology (Echo550; nanoliter range), the reaction mixture was incubated for 20 min at room temperature. To initiate the enzymatic reaction, ^33P-ATP with specific activity of 10 μCi/μL was added to the reaction mixture to reach a final ATP concentration of 10 μM. Radioactivity was then monitored using the filter binding method after incubation of the reaction mixture for 2 h at room temperature. At given concentrations of inhibitor, biochemical potency was measured by the percent remaining kinase activity with respect to the vehicle (dimethyl sulfoxide) reaction. Curve fits and IC50 values were then obtained using the PRISM program (GraphPad Software). […]
# Chain of RIP3 (Q9Y572 whole entry): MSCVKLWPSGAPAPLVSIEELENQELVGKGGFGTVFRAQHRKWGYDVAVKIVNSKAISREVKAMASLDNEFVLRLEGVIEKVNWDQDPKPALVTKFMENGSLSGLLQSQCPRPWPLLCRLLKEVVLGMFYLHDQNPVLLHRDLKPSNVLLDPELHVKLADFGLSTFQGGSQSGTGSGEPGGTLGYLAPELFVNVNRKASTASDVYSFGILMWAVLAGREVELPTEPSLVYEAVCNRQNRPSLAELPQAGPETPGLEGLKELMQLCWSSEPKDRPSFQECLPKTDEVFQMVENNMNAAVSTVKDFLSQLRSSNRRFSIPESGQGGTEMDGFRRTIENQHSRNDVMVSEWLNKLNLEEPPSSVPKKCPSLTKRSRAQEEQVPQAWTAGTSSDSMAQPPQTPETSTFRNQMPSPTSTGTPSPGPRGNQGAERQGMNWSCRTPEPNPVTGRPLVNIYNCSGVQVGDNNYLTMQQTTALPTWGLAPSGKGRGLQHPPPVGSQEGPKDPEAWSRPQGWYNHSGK
compound,measurement,setting,value
"Cc1ccc(Oc2ccnc3cc(-c4cnn(C5CCNCC5)c4)ccc23)cc1 [HS-1371, 7-(1-(Piperidin-4-yl)-1H-pyrazol-4-yl)-4-(p-tolyloxy)quinoline]",cell viability in RIP3 or MLKL-deficient cells treated with TSZ,[1],did not obviously affect cell viability
same,TRAIL-induced S227 phosphorylation of RIP3 and RIP3-mediated phosphorylation of MLKL,"HT-29 cells; HT-29, TRAIL + Smac mimetic + zVAD 6 h, dose-dependent",decreased
same,TRAIL-induced cytotoxicity,"HT-29 cells; HT-29, TRAIL + Smac mimetic + zVAD 24 h, MTT",reduction in cytotoxicity
same,"IL-1β, IL-6 and TNF-α expression",[2],reduced
same,IC50,RIP3,20.8 nM
